{
  "source": "patent US20250082773A1",
  "about": "“COMBINATION THERAPY USING EXOSOME SECRETION INHIBITOR AND IMMUNE CHECKPOINT INHIBITOR” (Research & Business Foundation SUNGKYUNKWAN UNIVERSITY, priority 2021, published 2025)",
  "key": {"[1]": {"tested_on": "CT26 tumor", "assay": "Tumor growth inhibition test in CT26 tumor-bearing mice", "format": "in vivo", "conditions": "αPD-1 5 mg/kg i.p. every 3 days x3", "method": "CT26 cells (2×10^6) were suspended in cold PBS and subcutaneously injected to establish CT26 tumor-bearing mice.\nThe tumor volume was measured using calipers and calculated for each mouse using the following equation: V=½ab^2 (a is the longest axis and b is the shortest axis). After the treatment schedule, the tumors were excised and weighed.\nThe tumor volume was measured every day by measuring long-axis and short-axis of the tumor using calipers."}, "[2]": {"tested_on": "CT26 cells", "assay": "Ability of PDC to inhibit exosome secretion in CT26 cells (NTA)", "format": "cell-based, murine", "design": "dose or concentration left out as unconfirmed", "conditions": "FIG. 14", "description": "To evaluate the ability of PEG-b-Poly(L-lysine-CDM-SFX) to inhibit the secretion of exosomes, CT26 cells, a murine colon cancer cell line, were treated with 100 µM of SFX and the same amount of PDC, exosomes from the supernatant were separated, and secreted exosomes were quantitatively analyzed.\nIn addition, to evaluate the ability of PEG-SS-AMB to inhibit the secretion of exosomes, CT26 cells, a murine colon cancer cell line, were treated with […] of PEG-SS-AMB, exosomes from the supernatant were separated, and secreted exosomes were quantitatively analyzed."}, "[3]": {"tested_on": "exosomal PD-L1", "assay": "Exosomal PD-L1 in plasma of CT26 tumor-bearing mice (ELISA)", "format": "in vivo", "conditions": "SFX 200 mg/kg, αPD-1 5 mg/kg, FIG. 4C", "method": "To assess PD-L1 on EXOs isolated from mouse plasma, ELISA plates were coated with a monoclonal antibody against PD-L1 (R&D Systems, Minneapolis, MN, USA) overnight at 25° C. Free binding sites were blocked with blocking buffer for 2 h at 25° C. After washing the plates with 0.05% Tween-20 in PBS, EXOs were added to each well and incubated for 2 h at 25° C. […] The plate was incubated for 20 min with a substrate solution composed of H2O2 and tetramethylbenzidine. After the addition of a stop solution containing 2N H2SO4 (R&D Systems, DY994), the plate was immediately read at 450 nm using an xMark™ microplate reader (Bio-Rad)."}},
  "data": [
    {"compound": "CCCNS(=O)(=O)Nc1ncnc(OCCOc2ncc(Br)cn2)c1-c1ccc(Br)cc1", "note": "[MCT, macitentan]", "values": [
      {"measurement": "tumor growth (tumor volume)", "setting": "[1]; MCT 50 mg/kg orally daily, FIG. 17B", "value": "effectively retarded"}
    ]},
    {"compound": "Cc1noc(NS(=O)(=O)c2ccc(N)cc2)c1C", "note": "[SFX, sulfisoxazole]", "values": [
      {"measurement": "inhibition of exosome secretion compared to the untreated control group", "setting": "[2]", "value": "more than 50%"},
      {"measurement": "exosomal PD-L1 levels in the plasma", "setting": "[3]", "value": "significantly decreased"}
    ]},
    {"compound": "COc1ccccc1Oc1c(NS(=O)(=O)c2ccc(C(C)(C)C)cc2)nc(-c2ncccn2)nc1OCCO", "note": "[BST, bosentan]", "values": [
      {"measurement": "tumor growth (tumor volume)", "setting": "[1]; BST 10 mg/kg orally daily, FIG. 16B", "value": "effectively retarded"}
    ]}
  ]
}
